Test results taken from BigSolDB 2.1.

## C=CC(=O)N1CCC[C@@H](n2nc(-c3ccc(Oc4ccccc4)cc3)c3c(N)ncnc32)C1
In ethanol, 298.15 K
  solubility (mole fraction): 0.00312
In ethanol, 303.15 K
  solubility (mole fraction): 0.00356
In ethanol, 308.15 K
  solubility (mole fraction): 0.00396
In ethanol, 313.15 K
  solubility (mole fraction): 0.00447
In ethanol, 323.15 K
  solubility (mole fraction): 0.00551
In water, 298.15 K
  solubility (mole fraction): 1.42e-07
In water, 303.15 K
  solubility (mole fraction): 2.22e-07
In water, 308.15 K
  solubility (mole fraction): 3.12e-07
In water, 313.15 K
  solubility (mole fraction): 4.29e-07
In water, 323.15 K
  solubility (mole fraction): 7.77e-07
